tested on: P. falciparum 3D7 growth, pLDH absorbance; experiment: P. falciparum 3D7 growth inhibition, dose response, strain 3D7 (AID 2305)

| SMILES | IC50 |
| --- | --- |
| COCCNCc1cccc(-c2ccccc2CN(C(=O)c2ccc3c(c2)OCO3)c2ccc(OC)cc2)c1 | 1.11 µM |
| Cc1nc(-c2ccccc2)nc(N2CCN(C(=O)c3ccco3)CC2)c1Cc1ccccc1F | 0.93 µM |
| O=S(=O)(Nc1ccc(CCN2CCC(N3CCCCC3)CC2)cc1)c1cccc(C(F)(F)F)c1 | 0.7 µM |
| CC1(C)C[C@@H]2C[C@@](C)(CN2C(=O)c2cc(C(C)(C)C)nn2Cc2ccccc2)C1 | 1.09 µM |
| CCOc1cc(C(=O)NCc2cccc(C(F)(F)F)c2)ccc1-c1nc2ccc(Cl)cc2[nH]1 | 0.98 µM |
| O=C(N[C@H]1CCN(Cc2ccc(OCCN3CCCC3)c3ccccc23)C1)c1ccc(Cl)c(Cl)c1 | 0.75 µM |
| Nc1ncc(-c2ccc3ncccc3c2)c(N)n1 | 0.92 µM |
| CCCCCCN1CCC(NCc2cccc([N+](=O)[O-])c2)CC1 | 0.67 µM |
| COc1ccc(-c2cccc(NC(=O)c3ccc(C#N)cc3)c2)cc1CN1CCCC1 | 0.7 µM |
| COc1ccc(-c2csc(C(=O)NC3CCC(N4CCC(c5ccccc5C)CC4)CC3)c2)cc1 (stereo not given) | 0.38 µM |
| O=C(NCCCN1CCOCC1)c1csc(Nc2ccc(Cl)c(Cl)c2)n1 | 0.92 µM |
| CCCNc1nc(Nc2ccccc2C)nc2ccccc12 | 0.89 µM |
| CCC(C)CN1CCN(c2cc(NC(=O)c3cccs3)ccn2)C(C)C1 (stereo not given) | 1 µM |
| COc1ccccc1NC(=O)c1cc(C(=O)c2cc(Cl)ccc2O)cn(-c2ccccc2OC)c1=O | 0.94 µM |
| N#Cc1ccc2c(c1)CCN(CCC1CCC(NC(=O)/C=C/c3ccc4[nH]ccc4c3)CC1)CC2 (stereo not given) | 1.06 µM |
| Cc1nc(C)c(CC(=O)Nc2ccc(-c3cccc(-c4nc5ccc(C(F)(F)F)cc5[nH]4)c3)cc2)s1 | 0.92 µM |
| C[C@@H](CC1CCCCC1)NCc1ccccc1O | 0.93 µM |
| CC(C)CCN1CCC(Oc2ccc(NC(=O)c3ccc4ncccc4c3)cc2Cl)C1 (stereo not given) | 0.97 µM |
| COc1ccccc1CC(C)NCC(O)c1cccc(Cl)c1 (stereo not given) | 0.81 µM |
| S=C(NCCCCCN1CCC(c2c[nH]c3ccccc23)CC1)Nc1cc(Cl)cc(Cl)c1 | 0.87 µM |
| N#Cc1ccc(N[C@@H](CC2CCCCC2)C(=O)Nc2ccc(-c3ccccc3)cc2)c2ccccc12 | 0.6 µM |
| Cc1cc2c(NC(=O)NC3CCN(Cc4ccc(Cl)c(Cl)c4)CC3)cccc2cn1 | 0.68 µM |
| C=CCc1cc(Cc2cnc(N)nc2N)c2ccc(C)nc2c1OC | 0.69 µM |
| O=S(=O)(c1ccc2ccccc2c1)N1CCCN(Cc2ccc(OCCCN3CCCCC3)cc2)CC1 | 1.1 µM |
| CN1CCN(CCCN(Cc2cccc(-c3cccc(CNC4CCCC4)c3)c2)C(=O)/C=C/c2ccccc2)CC1 | 0.78 µM |

| SMILES | IC50 |
| --- | --- |
| CC(=Nc1ccc(Cl)c(Cl)c1)N(C)C | 0.54 µM |
| O=C(Nc1cccc(-c2ccc(-c3nc4ccc(C(F)(F)F)cc4[nH]3)cc2)c1)c1ccoc1 | 0.71 µM |
| Nc1nc(N)c2c(ccc3nn(S(=O)(=O)N4CCCC4)cc32)n1 | 0.1 µM |
| COc1cc(NC(=O)c2cccs2)c(C(=O)NCc2ccc(C)cc2)cc1OC | 1.36 µM |
| CC(C)c1ccc(NC(=O)Nc2ccc(CCNCCCc3ccccc3)cc2)cc1 | 0.76 µM |
| CS(=O)(=O)N(c1cccc(F)c1)c1cc(C(=O)N[C@@H](Cc2ccccc2)[C@H](O)CNCc2cccc(C(F)(F)F)c2)cc(N2CCCC2=O)c1 | 0.91 µM |
| Brc1ccc(Nc2nc3ccccc3nc2Nc2ccc(Br)cc2)cc1 | 0.78 µM |
| COc1ccc(CNC(=O)NC2CCN(c3ccnc(Nc4ccc(F)cc4)n3)C2)cc1 (stereo not given) | 0.84 µM |
| OCCNc1nc(Nc2ccccc2)nc2ccccc12 | 0.13 µM |
| Cc1[nH]nc2ccc(-c3ccc4nccc(N5CCC(N)CC5)c4c3)cc12 | 0.59 µM |
| N#CC(CC(=O)c1ccc(Cl)cc1)c1cccc(F)c1 (stereo not given) | 0.85 µM |
| Cc1cnc(NCC2CCCCC2)nc1N[C@@H](CO)C(=O)Nc1ccccc1 | 1.1 µM |
| CCOC(=O)c1ccc(NC(=O)NC2CCN(CCCCCNC(=O)/C=C/c3ccc(Cl)c(Cl)c3)C2)cc1 (stereo not given) | 0.49 µM |
| CN1CCN(c2ccc(Nc3c(C(N)=O)cnc4cc(-c5ccoc5)ccc34)cc2C(F)(F)F)CC1 | 0.78 µM |
| COc1cc(OC)c2c(C)cc(NCCCN3CCOCC3)nc2c1 | 1.07 µM |
| CN(CCc1ccccc1)c1ncc(-c2cccc(CNCCC3CCCN3C)c2)cn1 (stereo not given) | 0.87 µM |
| Cc1ccccc1CNc1noc(-c2sccc2Br)n1 | 0.38 µM |
| O=C(Nc1ccc2nc(-c3ccc4nc(NC(=O)C5CCCCC5)sc4c3)[nH]c2c1)C1CCCCC1 | 0.61 µM |
| CNCCCN(C)C(=O)Oc1c(Br)c(C)nc(C)c1-c1ccc(Oc2ccc(OC(F)(F)F)cc2)cc1 | 0.39 µM |
| CN1CCC(OC(=O)c2cc3cc(-c4ccccc4)ccc3n2S(=O)(=O)c2ccccc2)CC1 | 1.09 µM |
| O=C(CNC1CCCCC1)c1ccc(O)c(O)c1 | 0.66 µM |
| C/C=C/COc1ccc2ccccc2c1CNCCCCCCCCNCc1c(OC/C=C/C)ccc2ccccc12 | 0.91 µM |
| CCCCN(CCCC)CCC(O)C(=Cc1ccc(Cl)cc1Cl)c1ccc(C(F)(F)F)cc1N (stereo not given) | 0.19 µM |
| Cc1[nH]c(C)c(-c2ccc(OCCCc3ccccn3)cc2)c(=O)c1Br | 0.21 µM |
| COc1ccc2c(NN=Cc3ccccc3F)cc(C)nc2c1 | 1 µM |

| SMILES | IC50 |
| --- | --- |
| Cc1[nH]c(C)c(-c2ccc(-c3ccc4c(c3)OCO4)nc2)c(=O)c1Br | 0.19 µM |
| CN1CCC(NCCS(=O)(=O)c2cccc(Nc3ccc(-c4cccc(F)c4)cn3)c2)CC1 | 1.36 µM |
| O=C(NC1CCCCN(Cc2ccc3c(c2)OCCO3)C1)c1cc(-c2ccccc2F)cs1 (stereo not given) | 1.05 µM |
| O=C(NC1CCC(CN2CCC(c3c[nH]c4ccccc34)CC2)CC1)c1ccc(-c2ccccc2[N+](=O)[O-])o1 (stereo not given) | 0.77 µM |
| CCCCN(CCCC)C(=Nc1cccc(Cl)c1Cl)Nc1ccc(C#N)cc1O | 0.85 µM |
| CCCCN1CCCN(Cc2cccc(NC(=O)c3ccc(-c4ccccc4)cc3)c2)CC1 | 1.03 µM |
| CCCCCCCN1CCC(CCNc2ccnc3ccc(OC)cc23)CC1 | 0.95 µM |
| CN(c1cc(NC(=O)c2ccc(F)cc2)ccn1)C1CCN(Cc2ccc(C#N)cc2)CC1 | 1.51 µM |
| Cc1ccccc1OCCCc1c(C)nc(N)nc1N | 0.28 µM |
| Fc1ccc(Nc2ccnc3cc(-c4ccc(CNCCN5CCOCC5)o4)ccc23)c(Cl)c1 | 0.19 µM |
| O=C(Nc1cccc(-c2csc(-c3nc4ccccc4[nH]3)c2)c1)c1ccoc1 | 0.21 µM |
| CC1(C)[C@H]2CC[C@]1(C)CN(CC(O)Cn1c3ccccc3c3cc(I)ccc31)C2 (stereo not given in full) | 1.16 µM |
| O=C(NC1CCC(CN2CCC(c3c[nH]c4ccccc34)CC2)CC1)c1cc2ccccc2s1 (stereo not given) | 0.73 µM |
| CC[C@H]1C[N+]2([O-])CC[C@@H]1C[C@H]2[C@H](O)c1cc(-c2ccccc2)nc2ccc(OC)cc12 | 0.84 µM |
| CN1CCCC1CCNCc1ccc(-c2ccc(CNCCc3ccccc3)cn2)cc1 (stereo not given) | 1.11 µM |
| Cc1nc2nc(N)nc(N)c2c(C)c1Cc1cccc(C(F)(F)F)c1 | 1.29 µM |
| CC(C)(C)c1ccc(CN2CCC(CNC(=O)c3cc(-c4cccc(C(F)(F)F)c4)cs3)C2)cc1 (stereo not given) | 1.03 µM |
| Cc1cccc2[nH]c(-c3ccc(-c4ccc(CN5CCN(c6ccncc6)CC5)cc4)s3)nc12 | 0.11 µM |
| O=C(NC1CCCc2ccccc21)[C@@H]1CCCN1C(=O)c1ccc(O)c(-c2ccc(Cl)c(Cl)c2)c1 (stereo not given in full) | 0.21 µM |
| O=C(C1CCCCC1)N1CCOC(CCN2CCC(c3ccccc3)CC2)(c2ccc(Cl)c(Cl)c2)C1 (stereo not given) | 0.93 µM |
| CCc1cn2c3c(cc(C(=O)N[C@@H](Cc4ccccc4)[C@H](O)CNC(C)(C)c4cccc(OC)c4)cc13)N(C)S(=O)(=O)C2 | 0.06 µM |
| CC1(C)C(=O)Nc2ccccc2N1C(=O)CN1CCN(c2ccccc2O)CC1 | 1.07 µM |
| CCOC(=O)c1ccc(NC(=O)Nc2ccc(Cn3ncc(N4CCCNCC4)c(Cl)c3=O)cc2)cc1 | 0.44 µM |
| Cn1cncc1-c1ccc2ncnc(Nc3ccc(OCc4ccccc4)cc3)c2c1 | 1.34 µM |
| Cc1ccc(-c2ccc3c(c2)C=C(C(=O)NC2CCN(CCNC(=O)c4cccs4)CC2)CCC3)cc1 | 0.23 µM |

| SMILES | IC50 |
| --- | --- |
| CC[C@H]1CN2CC[C@H]1C[C@H]2[C@H](O)c1cc(N2CCCC(C(=O)N(CC)CC)C2)nc2ccc(OC)cc12 (stereo not given in full) | 0.07 µM |
| Cc1ccc(NC(=O)c2ccc(CN3CCCN(Cc4cccc(C#N)c4)CC3)cc2)cc1F | 0.59 µM |
| CC(O)C1CCCCN1C(=O)c1cccc(-c2ccc(-c3nc4ccccc4[nH]3)s2)c1 (stereo not given) | 0.8 µM |
| CCN(Cc1ccccc1)CC(O)c1ccc(Cl)c(Cl)c1 (stereo not given) | 0.18 µM |
| O=C(/C=C/c1ccc(Cl)c(Cl)c1)NCCCCCN1CCC(NC(=O)Nc2ccc(Cl)cc2Cl)CC1 | 0.64 µM |
| CNCCN(C)C(=O)Oc1c(Cl)c(C)nc(C)c1-c1ccc(Oc2ccc(OC(F)(F)F)cc2)cc1 | 0.13 µM |
| NC1=NCN(OCc2ccc(Cl)c(Cl)c2)C(N)=N1 | 0.19 µM |
| Cc1cc(NC(=O)c2coc3cc(F)c(N4C[C@@H](C)N(C)[C@@H](C)C4)cc23)cnc1-c1ccc(C#N)cc1 | 0.7 µM |
| Cc1nc2c(-n3cc(Cn4ccnc4)c4ccccc43)ncnc2n1-c1ccc(Cl)cc1Cl | 0.99 µM |
| CCOC(=O)c1[nH]c(-c2ccccc2)nc1-n1nc(C)cc1C | 0.69 µM |
| Cc1nc2nc(N)nc(N)c2c(C)c1Cc1ccccc1I | 0.35 µM |
| Cc1ccc(C)c(Sc2ccc(NC(=O)CN3CCN(C(=O)c4ccco4)CC3)cc2)c1 | 0.72 µM |
| O=C(Nc1ccc(OC2CCN(Cc3ccsc3)C2)c(Cl)c1)c1ccco1 (stereo not given) | 0.6 µM |
| c1ccc2c(NCCCCCCNc3c4c(nc5ccccc35)CCCC4)c3c(nc2c1)CCCC3 | 0.2 µM |
| CCCc1ccc(C(=O)N2[C@@H](c3nccs3)[C@@H](C(N)=O)C[C@@]2(CC(C)C)C(=O)O)cc1 | 0.16 µM |
| NC(Cc1ccc(Cl)cc1)=NCCN1CCCCCC1 | 0.74 µM |
| COc1ccc(CNCc2ccc(-c3ccc(-c4nc5ccc(F)cc5[nH]4)cc3)cc2)cc1 | 0.25 µM |
| CNC(=O)NC1=NC(C)(C)N(OCc2ccc(Cl)c(Cl)c2)C(NC(=O)NC)=N1 | 0.6 µM |
| CC1Cc2ccccc2N1S(=O)(=O)c1cccc(C(=O)Nc2nc(-c3ccccn3)cs2)c1 (stereo not given) | 1.32 µM |
| CCCCCCCC1=NN2C(=N)C(=Cc3cc(Br)c(OCc4ccc(F)cc4)c(OCC)c3)C(=O)N=C2S1 | 1.05 µM |
| Cc1cc(CN2CCN(CCOC(c3ccccc3)c3ccccc3)CC2)ccc1O | 0.93 µM |
| CC1=C(C(=O)OCCOCc2ccccc2)C(c2ccccc2C(F)(F)F)C(C(=O)OCCOCc2ccccc2)=C(C)N1 | 0.53 µM |
| CC(Cc1ccc(NC(=O)c2ccc(CNCCc3ccccc3)cc2)cc1)NCCc1cccc(Cl)c1 (stereo not given) | 0.35 µM |
| CC[C@H]1CN2CC[C@@H]1C[C@H]2[C@H](O)c1cc(-c2cccnc2)nc2ccc(OC)cc12 | 0.04 µM |
| Cc1cccc2[nH]c(-c3ccc(-c4ccc(CN5CCC(C(N)=O)CC5)cc4)s3)nc12 | 0.91 µM |

— PubChem BioAssay AID2305 (GlaxoSmithKline (GSK), 2010)
